Test results taken from US9408795B2, “Method for enhancing the growth and fullness of hair” (Avon Products, Inc., priority 2011, dated 2016).

Test system: FGFR1 gene expression
Assay: PCR to assess FGFR1 gene expression in human dermal papilla cells
Format: cell-based
Details: 48-hour incubation, normalized to 18S, vs DMSO control
Procedure: Method: PCR to assess FGFR1 gene expression in human dermal papilla cells, following administration of L-4-Thiazolylalanine, Pouzolzia petandra, or cis-6-nonenol.
Human dermal papilla cells (Cell Applications, CA) were plated at 5000 cells/cm^2 in collagen-coated 6-well culture plates in the Papilla Cell Growth Medium (Cell Application, CA) overnight in humidified atmosphere of 5% CO2 at 37° C. When dermal papilla cells reached 80-90% confluence, the medium was replaced with fresh medium and the compounds (L-4-Thiazolylalanine, Pouzolzia petandra, or cis-6-nonenol) dissolved in DMSO were added to the wells in duplicate at a concentration of 0.002% or 0.001%. DMSO was used a vehicle control. Following 48-hour incubation, the medium was removed and the cells were collected in the Lysis/Binding Solution (Ambion, Tex.) after being washed with cold PBS.
Total RNA was extracted from dermal papilla cells by using the RNAqueous kit (Ambion, Tex.) according to the manufacture's instruction. RNA was quantified on the Nanodrop ND-1000 Spectrophotometer (NanoDrop Technologies, DE) and the confirmation of integrity was determined using the Agilent Bioanalyzer before RNA was further processed for cDNA preparation. […]
RNA abundance of FGFR1 was measured using quantitative Real-Time PCR. […] All samples were run in triplicate and normalized to 18S and expressed as a percentage of the control.

Structure (SMILES)	Percent Inhibition of FGFR1 Expression (0.001% (w/v))	Percent Inhibition of FGFR1 Expression (0.002% (w/v))
N[C@@H](Cc1cscn1)C(=O)O [L-4-Thiazolylalanine, 4-L-thiazolylalanine]	59.13%	–
CC/C=C\CCCCCO [cis-6-nonenol]	–	28.25%
